For 24 molecules, EC50 results are on record in US20250382301A1 (Arizona Board of Regents on Behalf of the University of …, priority 2022, published 2025).

The subject of the assay is WNT signaling (TopGFP reporter in Human Colonic Epithelial Cells (HCEC)). In words: WNT Reporter Assay (TopGFP reporter). The format is cell-based. To be noted: Homo sapiens, stimulated with 10 μM CHIR99021, 24 hours, TopGFP/mCherry. For orientation: Reporter assays use an easily measured gene product as a stand-in for the process of interest.
Procedure: WNT Reporter Assay: Human Colonic Epithelial Cells (HCEC) were cultured using 1×DMEM supplemented with 1% penicillin/streptomycin, 1% Glutamax, and 10% fetal bovine serum in 5% CO2 at 37° C. These cells were previously engineered to express the TopGFP reporter (Addgene #24304) using second generation lentiviral techniques. For the Wnt reporter assay, cells were seeded at 2000 cells per well in a 384-well black screenstar imaging microplates (Greiner #781866) and allowed to adhere overnight. The following day cells were stimulated to induce the Wnt pathway using 10 μM CHIR99021 (Selleck #S1263). […] Cells were incubated for 24 hours before fixing for 30 minutes with 4% paraformaldehyde/sucrose solution. Cells were permeabilized with 0.1% triton-x in PBS for 10 minutes and stained for DAPI for 30 minutes. Plates were imaged on a Nikon Ti2 Eclipse fluorescent microscope for DAPI, GFP, and mCherry. Using Nikon Elements software for analysis, nuclei were segmented based on DAPI and mean object intensity per cell for both TopGFP and the internal control (mCherry) was measured. To calculate the amount of Wnt activity, we took the mean intensity of TopGFP and divided it by the mean intensity of mCherry per cell to normalize individual cells. Curves and EC50s were plotted and calculated using Graphpad Prism software.
Usually EC50 stands for the concentration needed to bring the measured effect to its halfway point. Low readings indicate a more potent agent, high ones a less potent agent. Consider `C[C@@H]1CN(c2ccccn2)CCN1c1ncnc2ccc(-c3ccnc(N)c3)cc12` [Compound 44, (R)-4-(4-(2-methyl-4-(pyridin-2-yl)piperazin-1-yl)quinazolin-6-yl)pyridin-2-amine], for which the half-maximal effective concentration (EC50) is 0.1 to 1 µM. As for `C[C@H]1CN(c2ccccn2)CCN1c1ncnc2ccc(-c3ccnc(N)c3)cc12` [Compound 45, (S)-4-(4-(2-methyl-4-(pyridin-2-yl)piperazin-1-yl)quinazolin-6-yl)pyridin-2-amine], the figure is < 0.1 µM. Regarding `Nc1cc(-c2ccc3ncnc(N4CCN(C(=O)c5ccccc5F)CC4)c3c2)ccn1` [Compound 46, (4-(6-(2-aminopyridin-4-yl)quinazolin-4-yl)piperazin-1-yl)(2-fluorophenyl)methanone], the concentration for a half-maximal effect (EC50) is > 1 µM.

For the molecule `COc1cc2c(cc1OC)CN(c1ncnc3ccc(-c4cnn(C)c4)cc13)CC2` [Compound 47, 4-(6,7-dimethoxy-3,4-dihydroisoquinolin-2(1H)-yl)-6-(1-methyl-1H-pyrazol-4-yl)quinazoline], the half-maximal effective concentration (EC50) was > 1 µM. As for `Nc1cc(-c2ccc3ncnc(N4CCC(c5ccccc5F)CC4)c3c2)ccn1` [Compound 48, 4-(4-(4-(2-fluorophenyl)piperidin-1-yl)quinazolin-6-yl)pyridin-2-amine], the figure is 0.1 to 1 µM. As to `Fc1ccc(CN2CCN(c3ncnc4ccc(-c5c[nH]c6ncccc56)cc34)CC2)cc1` [Compound 49, 4-(4-(4-fluorobenzyl)piperazin-1-yl)-6-(1H-pyrrolo[2,3-b]pyridin-3-yl)quinazoline], the EC50 is < 0.1 µM. `Nc1cc(-c2ccc3ncnc(N4CCN(c5nccs5)CC4)c3c2)ccn1` [Compound 50, 4-(4-(4-(thiazol-2-yl)piperazin-1-yl)quinazolin-6-yl)pyridin-2-amine]: the EC50 is < 0.1 µM.

As for `Nc1cc(-c2ccc3ncnc(N4CCC(c5ccccc5)CC4)c3c2)ccn1` [Compound 51, 4-(4-(4-phenylpiperidin-1-yl)quinazolin-6-yl)pyridin-2-amine], the concentration giving a half-maximal response (EC50) fell in the range of 0.1 to 1 µM.

Consider `Nc1cc(-c2ccc3nccc(N4CCN(c5ccccc5F)CC4)c3n2)ccn1` [Compound 52, 4-(8-(4-(2-fluorophenyl)piperazin-1-yl)-1,5-naphthyridin-2-yl)pyridin-2-amine], for which the EC50 was < 0.1 µM. As for `Nc1cc(-c2ccc3nccc(N4CCN(c5ccccc5)CC4)c3n2)ccn1` [Compound 53, 4-(8-(4-phenylpiperazin-1-yl)-1,5-naphthyridin-2-yl)pyridin-2-amine], the figure is < 0.1 µM; as for `Nc1cc(-c2ccc3ncnc(N4[C@@H]5CC[C@H]4CN(c4ccccn4)C5)c3c2)ccn1` [Compound 54, 4-(4-((1R,5S)-3-(pyridin-2-yl)-3,8-diazabicyclo[3.2.1]octan-8-yl)quinazolin-6-yl)pyridin-2-amine], 0.1 to 1 µM; as for `Nc1cc(-c2ccc3ncnc(N4C[C@H]5C[C@@H]4CN5c4ccccn4)c3c2)ccn1` [Compound 55, 4-(4-((1R,4R)-5-(pyridin-2-yl)-2,5-diazabicyclo[2.2.1]heptan-2-yl)quinazolin-6-yl)pyridin-2-amine], > 1 µM. Next, `Nc1cc(-c2ccc3ncnc(N4CCCN(c5ccccn5)CC4)c3c2)ccn1` [Compound 56, 4-(4-(4-(pyridin-2-yl)-1,4-diazepan-1-yl)quinazolin-6-yl)pyridin-2-amine]: > 1 µM; `Fc1cccnc1N1CCN(c2ncnc3ccc(-c4c[nH]c5ncccc45)cc23)CC1` [Compound 57, 4-(4-(3-fluoropyridin-2-yl)piperazin-1-yl)-6-(1H-pyrrolo[2,3-b]pyridin-3-yl)quinazoline]: < 0.1 µM. Next, `O=c1ccccn1C1CCN(c2ncnc3ccc(-c4c[nH]c5ncccc45)cc23)CC1` [Compound 58, 1-(1-(6-(1H-pyrrolo[2,3-b]pyridin-3-yl)quinazolin-4-yl)piperidin-4-yl)pyridin-2(1H)-one]: < 0.1 µM.

For `O=c1ccccn1C1CCN(c2ncnc3ccc(-c4cn[nH]c4)cc23)CC1` [Compound 59, 1-(1-(6-(1H-pyrazol-4-yl)quinazolin-4-yl)piperidin-4-yl)pyridin-2(1H)-one], the EC50 is < 0.1 µM. As for `Cc1n[nH]cc1-c1ccc2ncnc(N3CCN(c4ccccn4)CC3)c2c1` [Compound 60, 6-(3-methyl-1H-pyrazol-4-yl)-4-(4-(pyridin-2-yl)piperazin-1-yl)quinazoline], the figure is > 1 µM.

As to `Nc1cc(-c2ccc3ncnc(N4CCN(c5ncccc5F)CC4)c3c2)ccn1` [Compound 61, 4-(4-(4-(3-fluoropyridin-2-yl)piperazin-1-yl)quinazolin-6-yl)pyridin-2-amine], the 50% effective concentration (EC50) was < 0.1 µM. Next, `Nc1cc(-c2ccc3ncnc(N4CCC(n5ccccc5=O)CC4)c3c2)ccn1` [Compound 62, 1-(1-(6-(2-aminopyridin-4-yl)quinazolin-4-yl)piperidin-4-yl)pyridin-2(1H)-one]: 0.1 to 1 µM. As for `Nc1cc(-c2ccc3ncnc(N4CCC(c5ccc(F)cc5F)CC4)c3c2)ccn1` [Compound 63, 4-(4-(4-(2,4-difluorophenyl)piperidin-1-yl)quinazolin-6-yl)pyridin-2-amine], the figure is 0.1 to 1 µM; as for `Nc1cc(-c2ccc3ncnc(N4CCC5(CCN(c6ccccn6)CC5)C4)c3c2)ccn1` [Compound 64, 4-(4-(8-(pyridin-2-yl)-2,8-diazaspiro[4.5]decan-2-yl)quinazolin-6-yl)pyridin-2-amine], 0.1 to 1 µM.

`Nc1cc(-c2ccc3ncnc(N4CCC5(CCN(c6ccccn6)C5)CC4)c3c2)ccn1` [Compound 65, 4-(4-(2-(pyridin-2-yl)-2,8-diazaspiro[4.5]decan-8-yl)quinazolin-6-yl)pyridin-2-amine]: the EC50 is < 0.1 µM. As for `Nc1cc(-c2ccc3ncnc(N4C[C@H]5CN(c6ccccn6)C[C@H]5C4)c3c2)ccn1` [Compound 66, 4-(4-((3aR,6aS)-5-(pyridin-2-yl)hexahydropyrrolo[3,4-c]pyrrol-2(1H)-yl)quinazolin-6-yl)pyridin-2-amine], the figure is 0.1 to 1 µM; as for `Nc1cc(-c2ccc3ncnc(N4CCN(c5ccccc5F)C(=O)C4)c3n2)ccn1` [Compound 67, 4-(6-(2-aminopyridin-4-yl)pyrido[3,2-d]pyrimidin-4-yl)-1-(2-fluorophenyl)piperazin-2-one], < 0.1 µM.
